Several values for one entry are separate records, joined by “and”; a condition that tells them apart may be missing. Equal entries are not always repeated. Toxic doses and inconclusive results are not listed.
Tested on: B6C3F1 mice, Lewis lung carcinoma iv, survival T/C
Assay: NCI In Vivo Anticancer Drug Screen. Data for tumor model Lewis Lung Carcinoma (intravenous) in B6C3F1 mice
Details: endpoint: median survival time, schedule: Q01DX009 (ip), higher = longer survival
Procedure: The antitumor activity of compounds was measured in mice bearing transplantable tumors. Survival or tumor size were measured and the results are expressed as the measurement made in the treated group (T) divided by the measurement made in the vehicle treated control group (C). The tumor model used in this assay is Lewis Lung Carcinoma (intravenous) in B6C3F1 mice

[1] = dose: 50.0 mg/kg/injection, vehicle: Klucel (hydroxypropylcellulose) (HPC)
[2] = dose: 100.0 mg/kg/injection, vehicle: Klucel (hydroxypropylcellulose) (HPC)
[3] = dose: 6.25 mg/kg/injection, vehicle: saline
[4] = dose: 12.5 mg/kg/injection, vehicle: saline
[5] = dose: 25.0 mg/kg/injection, vehicle: saline
[6] = dose: 50.0 mg/kg/injection, vehicle: saline
[7] = dose: 3.12 mg/kg/injection, vehicle: saline

Q: Which results are given for `CO[C@@H]1[C@H](O)CC[C@]2(CO2)[C@H]1[C@@]1(C)O[C@@H]1CC=C(C)C`?
A: T/C (dose: 1.56 mg/kg/injection, vehicle: saline with Tween-80): 95 % of control and 101 % of control; T/C (dose: 3.12 mg/kg/injection, vehicle: saline with Tween-80): 95 % of control and 103 % of control; T/C (dose: 6.25 mg/kg/injection, vehicle: saline with Tween-80): 93 % of control and 101 % of control; T/C (dose: 12.5 mg/kg/injection, vehicle: saline with Tween-80): 101 % of control; T/C (dose: 25.0 mg/kg/injection, vehicle: saline with Tween-80): 106 % of control and 115 % of control; T/C (dose: 50.0 mg/kg/injection, vehicle: saline with Tween-80): 103 % of control and 107 % of control

Q: For `C1CC[N-]CC1.[Cl][Pt+2][Cl].[NH-]C1CC1`, which T/C (dose: 1.56 mg/kg/injection, vehicle: water) is on record?
A: 106 % of control

Q: What about the T/C (dose: 3.12 mg/kg/injection, vehicle: water) of the same molecule?
A: 110 % of control

Q: And the T/C (dose: 6.25 mg/kg/injection, vehicle: water)?
A: 107 % of control and 109 % of control

Q: What about the T/C (dose: 12.5 mg/kg/injection, vehicle: water) of the same molecule?
A: 102 % of control and 120 % of control

Q: Which results are given for `CCCCCn1c(C)cc(/C=C\c2ccc3cc(C)ccc3[n+]2C)c1C`?
A: T/C (dose: 37.5 micrograms/kg/injection, vehicle: Klucel (hydroxypropylcellulose) (HPC)): 107 % of control; T/C (dose: 75.0 micrograms/kg/injection, vehicle: Klucel (hydroxypropylcellulose) (HPC)): 109 % of control; T/C (dose: 150.0 micrograms/kg/injection, vehicle: Klucel (hydroxypropylcellulose) (HPC)): 104 % of control; T/C (dose: 300.0 micrograms/kg/injection, vehicle: Klucel (hydroxypropylcellulose) (HPC)): 97 % of control

Q: Which results are given for `C[C@@](O)(/C=C/[C@H]1CC=CC(=O)O1)[C@@H](C[C@@H](O)\C=C/C=C\C=C\CO)OP(=O)(O)O`?
A: T/C (dose: 1.56 mg/kg/injection, vehicle: other): 93 % of control; T/C (dose: 3.12 mg/kg/injection, vehicle: other): 91 % of control and 93 % of control and 100 % of control; T/C (dose: 6.25 mg/kg/injection, vehicle: other): 92 % of control and 95 % of control and 98 % of control; T/C (dose: 12.5 mg/kg/injection, vehicle: other): 100 % of control and 103 % of control (2×); T/C (dose: 25.0 mg/kg/injection, vehicle: other): 114 % of control

Q: How did the T/C (dose: 12.0 mg/kg/injection, vehicle: Klucel (hydroxypropylcellulose) (HPC)) turn out when `Cc1ccc(NCCN(C)C)c2c(=O)c3cc(O)ccc3sc12` was run?
A: 101 % of control

Q: What about the T/C (dose: 12.5 mg/kg/injection, vehicle: Klucel (hydroxypropylcellulose) (HPC)) of the same molecule?
A: 103 % of control

Q: And the T/C (dose: 25.0 mg/kg/injection, vehicle: Klucel (hydroxypropylcellulose) (HPC))?
A: 105 % of control and 121 % of control

Q: And the T/C [1]?
A: 121 % of control and 123 % of control

Q: What about the T/C [2] of the same molecule?
A: 120 % of control and 232 % of control

Q: And the T/C (dose: 200.0 mg/kg/injection, vehicle: Klucel (hydroxypropylcellulose) (HPC))?
A: 155 % of control

Q: How did the T/C (dose: 12.5 mg/kg/injection, vehicle: distilled water + Tween-80 + alcohol) turn out when `CCOc1cc2c(cc1C(C)c1ccc(OC)cc1)OCO2` (centres undefined) was run?
A: 104 % of control

Q: And the T/C (dose: 12.5 mg/kg/injection, vehicle: distilled water + alcohol)?
A: 106 % of control

Q: And the T/C (dose: 25.0 mg/kg/injection, vehicle: distilled water + Tween-80 + alcohol)?
A: 103 % of control

Q: And the T/C (dose: 25.0 mg/kg/injection, vehicle: distilled water + alcohol)?
A: 104 % of control

Q: What about the T/C (dose: 50.0 mg/kg/injection, vehicle: DMSO) of the same molecule?
A: 102 % of control

Q: What about the T/C (dose: 50.0 mg/kg/injection, vehicle: distilled water + Tween-80 + alcohol) of the same molecule?
A: 103 % of control

Q: And the T/C (dose: 50.0 mg/kg/injection, vehicle: distilled water + alcohol)?
A: 112 % of control

Q: And the T/C (dose: 100.0 mg/kg/injection, vehicle: distilled water + alcohol)?
A: 108 % of control

Q: And the T/C (dose: 200.0 mg/kg/injection, vehicle: distilled water + alcohol)?
A: 110 % of control

Q: `Cn1/c2cc/c1=C(\c1ccc(S(=O)(=O)O)cc1)c1ccc([n-]1)/C(c1ccc(S(=O)(=O)O)cc1)=c1/cc/c([nH]1)=C(\c1ccc(S(=O)(=O)O)cc1)c1ccc([n-]1)/C=2c1ccc(S(=O)(=O)O)cc1.O.O=S(=O)(O)C(F)(F)F.[Cu+2]` was tested. Which T/C [3] did it give?
A: 109 % of control

Q: And the T/C [4]?
A: 112 % of control

Q: What about the T/C [5] of the same molecule?
A: 116 % of control

Q: What about the T/C [6] of the same molecule?
A: 112 % of control

Q: Which T/C (dose: 25.0 mg/kg/injection, vehicle: water) does the source give for `OC1OC2COC(c3ccccc3)OC2C(O)C1O` (centres undefined) here?
A: 101 % of control

Q: And the T/C (dose: 50.0 mg/kg/injection, vehicle: water)?
A: 99 % of control

Q: What about the T/C (dose: 100.0 mg/kg/injection, vehicle: water) of the same molecule?
A: 98 % of control

Q: What about the T/C (dose: 200.0 mg/kg/injection, vehicle: water) of the same molecule?
A: 101 % of control

Q: And the T/C (dose: 400.0 mg/kg/injection, vehicle: water)?
A: 99 % of control

Q: And the T/C (dose: 800.0 mg/kg/injection, vehicle: water)?
A: 93 % of control

Q: Which results are given for `C[CH2][Sn]([CH2]C)([O]S(C)(=O)=O)[O]S(C)(=O)=O`?
A: T/C (dose: 0.09 mg/kg/injection, vehicle: saline): 108 % of control; T/C (dose: 0.19 mg/kg/injection, vehicle: saline): 97 % of control; T/C (dose: 0.39 mg/kg/injection, vehicle: saline): 99 % of control; T/C (dose: 0.79 mg/kg/injection, vehicle: saline): 109 % of control; T/C (dose: 1.56 mg/kg/injection, vehicle: saline): 93 % of control and 102 % of control; T/C [7]: 91 % of control and 87 % of control

Q: Which results are given for `C#C[C@]1(O)CC[C@H]2[C@@H]3CCc4cc(O)ccc4[C@H]3CC[C@@]21C`?
A: T/C [1]: 118 % of control and 122 % of control; T/C [2]: 113 % of control and 114 % of control; T/C (dose: 400.0 mg/kg/injection, vehicle: Klucel (hydroxypropylcellulose) (HPC)): 107 % of control

Q: With `Cc1ccccc1CN1C2=NCCN2C(=O)C2=C1CCN(S(=O)(=O)c1ccc(Cl)c(S(N)(=O)=O)c1)C2` as the molecule, how does the T/C (dose: 12.0 mg/kg/injection, vehicle: saline) read?
A: 103 % of control

Q: What about the T/C [5] of the same molecule?
A: 99 % of control

Q: And the T/C [6]?
A: 94 % of control

Q: What about the T/C (dose: 100.0 mg/kg/injection, vehicle: saline) of the same molecule?
A: 99 % of control and 101 % of control

Q: And the T/C (dose: 200.0 mg/kg/injection, vehicle: saline)?
A: 96 % of control and 102 % of control

Q: And the T/C (dose: 400.0 mg/kg/injection, vehicle: saline)?
A: 94 % of control and 98 % of control

Q: What does the source list for `COC1/C=C/C=C(/C)Cc2cc(O)c(Cl)c(c2)N(C)C(=O)CC(OC(=O)C(C)C)C2(C)OC2C(C)C2CC1(O)NC(=O)O2` (centres undefined)?
A: T/C (dose: 0.06 mg/kg/injection, vehicle: saline + alcohol): 101 % of control; T/C (dose: 0.12 mg/kg/injection, vehicle: saline + alcohol): 96 % of control; T/C (dose: 0.25 mg/kg/injection, vehicle: saline + alcohol): 100 % of control; T/C (dose: 0.5 mg/kg/injection, vehicle: saline + alcohol): 100 % of control

Q: With `CC(=O)Oc1c[nH]c(=O)[nH]c1=O` as the molecule, how does the T/C (dose: 12.5 mg/kg/injection, vehicle: distilled water + Tween-80) read?
A: 102 % of control

Q: And the T/C (dose: 25.0 mg/kg/injection, vehicle: distilled water + Tween-80)?
A: 95 % of control

Q: What about the T/C (dose: 50.0 mg/kg/injection, vehicle: distilled water + Tween-80) of the same molecule?
A: 92 % of control

Q: What about the T/C (dose: 100.0 mg/kg/injection, vehicle: distilled water + Tween-80) of the same molecule?
A: 100 % of control

Q: And the T/C (dose: 200.0 mg/kg/injection, vehicle: distilled water + Tween-80)?
A: 95 % of control

Q: What about the T/C (dose: 400.0 mg/kg/injection, vehicle: distilled water + Tween-80) of the same molecule?
A: 94 % of control

Q: How did the T/C [7] turn out when `CC1CN1P1(N2CC2C)=NP(N2CC2C)(N2CC2C)=NP(N2CC2C)(N2CC2C)=N1` (centres undefined) was run?
A: 100 % of control

Q: And the T/C [3]?
A: 100 % of control

Q: What about the T/C [4] of the same molecule?
A: 98 % of control

Q: What about the T/C [5] of the same molecule?
A: 97 % of control

Q: What about the T/C [6] of the same molecule?
A: 90 % of control
